We go through 17 compounds from ChEMBL document CHEMBL1134781, “1,2-Benzothiazine 1,1-dioxide P(2)-P(3) peptide mimetic aldehyde calpain I inhibitors” (J Med Chem, 2001).

Assay [1] deals with T1, Calpain-1 catalytic subunit (Homo sapiens, UniProt P07384).
T1 sequence (P07384 whole entry): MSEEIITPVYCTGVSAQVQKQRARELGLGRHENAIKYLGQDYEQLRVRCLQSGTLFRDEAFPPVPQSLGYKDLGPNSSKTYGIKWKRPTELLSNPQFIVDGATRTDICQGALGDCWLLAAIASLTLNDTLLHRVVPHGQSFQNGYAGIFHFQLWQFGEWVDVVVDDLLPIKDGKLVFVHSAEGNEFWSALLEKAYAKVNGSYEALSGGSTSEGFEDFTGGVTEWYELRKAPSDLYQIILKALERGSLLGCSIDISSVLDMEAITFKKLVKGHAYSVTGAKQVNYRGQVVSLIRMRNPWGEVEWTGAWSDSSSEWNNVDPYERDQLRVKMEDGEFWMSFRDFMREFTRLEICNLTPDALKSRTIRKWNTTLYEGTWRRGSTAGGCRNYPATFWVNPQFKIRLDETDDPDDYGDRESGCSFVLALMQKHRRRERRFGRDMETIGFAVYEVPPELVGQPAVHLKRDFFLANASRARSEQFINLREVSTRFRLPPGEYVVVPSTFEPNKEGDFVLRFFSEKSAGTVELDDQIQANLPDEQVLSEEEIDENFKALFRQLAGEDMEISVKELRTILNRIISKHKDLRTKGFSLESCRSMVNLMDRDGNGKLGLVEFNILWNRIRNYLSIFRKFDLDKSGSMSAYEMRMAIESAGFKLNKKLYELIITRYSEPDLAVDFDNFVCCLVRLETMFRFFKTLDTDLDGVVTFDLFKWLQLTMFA
The experiment in a line: (§1) Inhibitory activity towards human calpain I.

Assay [2] has as its target MOLT-4. The assay can be described thus: Inhibitory concentration against MOLT-4 cells (human T-cell leukemia cell line).
Assay [3] has as its target T1, Calpain-1 catalytic subunit. The experiment in a line: Inhibitory activity against calpain-I.
The target is the same in assay [4]. Described as §1. The source holds these as a separate data set.
The target is the same in assay [5]. The experiment in a line: Compound was evaluated for inhibitory activity towards human calpain I isomer 1.

As usually defined, the IC50 is the midpoint of a concentration-inhibition curve. Higher therefore signals weaker potency. As to `CN1C(C(=O)N[C@H](C=O)Cc2ccccc2)Cc2cc(N3CCOCC3)ccc2S1(=O)=O` (stereo partly specified), the IC50 in assay [1] was determined as 500 nM; in assay [2], 4100 nM.

In assay [2], `CN1C(C(=O)N[C@H](C=O)Cc2ccccc2)Cc2cc(Cl)ccc2S1(=O)=O` (stereo partly specified) gave a 50% inhibitory concentration (IC50) of 2200 nM.

With `CS(=O)(=O)NC(COCc1ccccc1)C(=O)N[C@H](C=O)Cc1ccccc1` (stereo partly specified), the IC50 in assay [3] is 11 nM.

On to `COC1=C(C(=O)N[C@H](C=O)Cc2ccccc2)N(C)S(=O)(=O)c2ccccc21`, for which the IC50 in assay [2] was 3200 nM.

In the case of `CC(C)CN1C(C(=O)N[C@H](C=O)Cc2ccccc2)Cc2cc(Cl)ccc2S1(=O)=O` (stereo partly specified), the IC50 in assay [1] and in assay [4] was 200 nM in each case.

For `O=C[C@H](Cc1ccccc1)NC(=O)C1Cc2ccccc2C(=O)N1` (stereo partly specified), the concentration for half-maximal inhibition (IC50) in assay [5] was ~5000 nM.

Regarding `COc1cc2c(cc1OC)S(=O)(=O)NC(C(=O)N[C@H](C=O)Cc1ccccc1)C2` (stereo partly specified), the figures for the IC50 in assay [1] and in assay [4] were 800 nM and 700 nM, respectively.

`CN1C(C(=O)N[C@H](C=O)Cc2ccccc2)=Cc2cc3c(cc2S1(=O)=O)OCCO3` displayed an IC50 in assay [2] of 900 nM.

Regarding `CN1C(=O)c2ccccc2CC1C(=O)N[C@H](C=O)Cc1ccccc1` (stereo partly specified), the IC50 was ~1000 nM in assay [1] and 85 nM in assay [5].

In assay [1], `COc1cc2c(cc1OC)S(=O)(=O)N(Cc1ccccc1)C(C(=O)N[C@H](C=O)Cc1ccccc1)C2` (stereo partly specified) had an IC50 of 1000 nM.

Turning to `COc1cc2c(cc1OC)S(=O)(=O)N(C)C(C(=O)N[C@H](C=O)Cc1ccccc1)C2` (stereo partly specified), 1900 nM corresponded to half-maximal inhibition in assay [2] (IC50).

For the compound `CN1C(C(=O)N[C@H](C=O)CCCCNS(=O)(=O)c2ccccc2)Cc2cc3c(cc2S1(=O)=O)OCCO3` (stereo partly specified), the midpoint of inhibition in assay [2], the IC50, lay at 1800 nM.

Consider `CN1C(C(=O)N[C@H](C=O)Cc2ccccc2)Cc2ccccc2S1(=O)=O` (stereo partly specified), for which the IC50 in assay [2] came out at 1700 nM.

For `O=C[C@H](Cc1ccccc1)NC(=O)C(Cc1ccccc1)NS(=O)(=O)c1ccccc1` (stereo partly specified), in assay [3], the IC50 amounted to 20 nM.

In assay [2], `CC(C)N1C(C(=O)N[C@H](C=O)Cc2ccccc2)Cc2cc3c(cc2S1(=O)=O)OCCO3` (mixture of isomers) displayed an IC50 of 2600 nM.

For `CN1C(C(=O)N[C@H](C=O)Cc2ccccc2)Cc2cc3c(cc2S1(=O)=O)OCCO3` (mixture of isomers), the IC50 in assay [2] stood at 2000 nM.

As for `COc1cc2c(cc1OC)S(=O)(=O)OC(C(=O)N[C@H](C=O)Cc1ccccc1)C2` (mixture of isomers), the IC50 in assay [2] amounted to 2200 nM.
